Source: US10059687B2, “Histone demethylase inhibitors” (CELGENE QUANTICEL RESEARCH, INC., priority 2015, dated 2018)

Experiments:
[1] = system: esophageal squamous cell carcinoma KYSE-150 cells; experiment: Cellular IC50 in KYSE-150 cells; type: cell-based; details: Homo sapiens, one class given per A and B pair
Description: Table 7 provides IC50 values of various compounds disclosed herein, tested in cellular human esophageal squamous cell carcinoma KYSE-150 cells: […]

[2] = molecular target: Jarid1B (Homo sapiens (Human), UniProt Q9UGL1); experiment: In vitro enzyme inhibition assay for Jarid1B activity (TR-FRET); type: biochemical
Chain of Jarid1B (Q9UGL1 whole entry, species assumed): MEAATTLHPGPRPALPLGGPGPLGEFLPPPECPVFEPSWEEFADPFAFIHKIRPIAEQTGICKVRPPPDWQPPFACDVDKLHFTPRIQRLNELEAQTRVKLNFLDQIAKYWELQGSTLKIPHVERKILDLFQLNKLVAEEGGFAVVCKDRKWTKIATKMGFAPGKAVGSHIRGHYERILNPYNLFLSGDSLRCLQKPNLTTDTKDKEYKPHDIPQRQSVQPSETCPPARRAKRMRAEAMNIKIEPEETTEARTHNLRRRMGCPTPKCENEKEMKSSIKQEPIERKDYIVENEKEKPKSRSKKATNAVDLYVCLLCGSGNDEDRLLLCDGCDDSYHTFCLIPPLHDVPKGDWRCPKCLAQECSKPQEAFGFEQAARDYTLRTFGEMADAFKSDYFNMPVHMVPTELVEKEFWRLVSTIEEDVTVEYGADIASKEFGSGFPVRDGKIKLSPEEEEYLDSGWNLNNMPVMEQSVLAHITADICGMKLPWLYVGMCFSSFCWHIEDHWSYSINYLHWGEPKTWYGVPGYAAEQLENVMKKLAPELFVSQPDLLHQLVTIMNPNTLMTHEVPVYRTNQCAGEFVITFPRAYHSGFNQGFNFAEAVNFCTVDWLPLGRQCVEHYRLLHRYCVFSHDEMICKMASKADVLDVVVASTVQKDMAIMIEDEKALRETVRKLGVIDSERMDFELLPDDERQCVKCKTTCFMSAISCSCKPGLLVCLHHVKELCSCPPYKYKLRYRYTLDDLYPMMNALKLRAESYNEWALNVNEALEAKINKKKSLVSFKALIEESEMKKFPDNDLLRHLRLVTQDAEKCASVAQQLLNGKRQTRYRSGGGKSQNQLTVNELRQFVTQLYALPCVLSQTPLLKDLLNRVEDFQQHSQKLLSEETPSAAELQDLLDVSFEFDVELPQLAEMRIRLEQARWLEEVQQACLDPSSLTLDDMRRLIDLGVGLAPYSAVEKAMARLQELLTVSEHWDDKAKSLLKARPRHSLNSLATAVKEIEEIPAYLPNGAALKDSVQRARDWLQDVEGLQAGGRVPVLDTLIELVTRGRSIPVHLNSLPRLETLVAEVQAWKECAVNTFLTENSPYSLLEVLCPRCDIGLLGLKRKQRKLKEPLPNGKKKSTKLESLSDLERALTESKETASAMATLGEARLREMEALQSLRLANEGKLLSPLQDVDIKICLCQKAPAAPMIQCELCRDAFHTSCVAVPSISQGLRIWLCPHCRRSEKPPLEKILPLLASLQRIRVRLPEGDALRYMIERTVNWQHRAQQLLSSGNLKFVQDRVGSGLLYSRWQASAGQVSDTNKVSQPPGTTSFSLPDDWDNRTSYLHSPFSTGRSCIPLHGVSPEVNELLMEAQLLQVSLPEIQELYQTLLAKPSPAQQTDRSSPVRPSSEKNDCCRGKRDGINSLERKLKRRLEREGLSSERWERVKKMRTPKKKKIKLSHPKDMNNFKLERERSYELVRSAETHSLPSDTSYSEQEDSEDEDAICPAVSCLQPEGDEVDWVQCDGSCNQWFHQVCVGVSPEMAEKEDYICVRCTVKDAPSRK
Procedure: The ability of test compounds to inhibit the activity of Jarid1B was determined in 384-well plate format under the following reaction conditions: 0.8 nM Jarid1B, 300 nM H3K4me3-biotin labeled peptide (Anaspec cat #64357), 2 μM alpha-ketoglutaric acid in assay buffer of 50 mM HEPES, pH7.3, 0.005% Brij35, 0.5 mM TCEP, 0.2 mg/ml BSA, 50 μM sodium L-ascorbate, and 2 μM ammonium iron(II) sulfate. Reaction product was determined quantitatively by TR-FRET after the addition of detection reagent Phycolink Streptavidin-allophycocyanin (Prozyme) and Europium-anti-H3K4me or -H3K4me2 antibody (PerkinElmer) in the presence of 5 mM EDTA in LANCE detection buffer (PerkinElmer) at a final concentration of 25 nM and 1 nM, respectively.
(§1) The assay reaction was initiated by the following: 2 μl of the mixture of 900 nM H3K4me3-biotin labeled peptide and 6 μM alpha-ketoglutaric acid with 2 μl of 11-point serial diluted inhibitor in 3% DMSO was added to each well of the plate, followed by the addition of 2 μl of 2.4 nM Jarid1B to initiate the reaction. The reaction mixture was incubated at RT for 30 min, and terminated by the addition of 6 μl of 5 mM EDTA in LANCE detection buffer containing 50 nM Phycolink Streptavidin-allophycocyanin and 2 nM Europium-anti-H3K4me/H3K4me2 antibody. Plates were read by EnVisionMultilabel Reader in TR-FRET mode (excitation at 320 nm, emission at 615 nm and 665 nm) after 1 hr incubation at RT. A ratio was calculated (665/615) for each well and fitted to determine inhibition constant (IC50).

[3] = molecular target: JMJD2C (Homo sapiens (Human), UniProt Q9H3R0); experiment: In vitro enzyme inhibition assay for JMJD2C activity (TR-FRET); type: biochemical
Chain of JMJD2C (Q9H3R0 2-372): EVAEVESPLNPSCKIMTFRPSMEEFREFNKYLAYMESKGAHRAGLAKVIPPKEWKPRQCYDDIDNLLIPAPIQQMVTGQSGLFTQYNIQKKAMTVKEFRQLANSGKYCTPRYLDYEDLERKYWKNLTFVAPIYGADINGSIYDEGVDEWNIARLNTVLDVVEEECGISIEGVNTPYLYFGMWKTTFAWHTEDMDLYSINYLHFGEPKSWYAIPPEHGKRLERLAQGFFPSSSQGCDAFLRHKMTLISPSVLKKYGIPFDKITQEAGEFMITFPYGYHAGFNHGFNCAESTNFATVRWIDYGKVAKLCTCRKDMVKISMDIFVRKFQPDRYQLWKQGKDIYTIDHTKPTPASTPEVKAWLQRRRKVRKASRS
Procedure: This assay determines the ability of a test compound to inhibit JMJD2C demethylase activity. Baculovirus expressed JMJD2C (GenBank Accession #BC143571, AA 2-372) was purchased from BPS Bioscience (Cat#50105).
The ability of test compounds to inhibit the activity of JMJD2C was determined in 384-well plate format under the following reaction conditions: 0.3 nM JMJD2C, 300 nM H3K9me3-biotin labeled peptide (Anaspec cat #64360), 2 μM alpha-ketoglutaric acid in assay buffer of 50 mM HEPES, pH7.3, 0.005% Brij35, 0.5 mM TCEP, 0.2 mg/ml BSA, 50 μM sodium L-ascorbate, and 2 μM ammonium iron(II) sulfate. Reaction product was determined quantitatively by TR-FRET after the addition of detection reagent Phycolink Streptavidin-allophycocyanin (Prozyme) and Europium-anti-di-methylated histone H3 lysine 9 (H3K9me2) antibody (PerkinElmer) in the presence of 5 mM EDTA in LANCE detection buffer (PerkinElmer) at a final concentration of 50 nM and 1 nM, respectively.
as §1, with “nM H3K9me3-biotin” for “nM H3K4me3-biotin”, “DMSO were” for “DMSO was”, “of 0.9” for “of 2.4”, “nM JMJD2C” for “nM Jarid1B”, “containing 100” for “containing 50”, “nM Europium-anti-H3K9me2” for “nM Europium-anti-H3K4me/H3K4me2”

[4] = molecular target: JMJD3 (Homo sapiens, UniProt O15054); experiment: In vitro enzyme inhibition assay for JMJD3 activity (TR-FRET); type: biochemical
Procedure: This assay determines the ability of a test compound to inhibit JMJD3 demethylase activity. Baculovirus expressed JMJD3 (GenBank Accession #NM-001080424, AA1043-end) was purchased from BPS Bioscience (Cat#50115).
The enzymatic assay of JMJD3 activity is based upon Time Resolved-Fluorescence Resonance Energy Transfer (TR-FRET) detection. The ability of test compounds to inhibit the activity of JMJD3 was determined in 384-well plate format under the following reaction conditions: 5 nM JMJD3, 250 nM H3K27me3-biotin labeled peptide (Anaspec cat #64367), 0.4 to 2 μM α-ketoglutaric acid in assay buffer of 50 mM HEPES, pH7.3, 0.005% Brij35, 0.5 mM TCEP, 0.2 mg/ml BSA, 50 μM sodium L-ascorbate, and 5 μM ammonium iron(II) sulfate. Reaction product was determined quantitatively by TR-FRET after the addition of detection reagent Phycolink Streptavidin-allophycocyanin (Prozyme) and Europium-anti-H3K27me2 antibody (PerkinElmer) in the presence of 5 mM EDTA in LANCE detection buffer (PerkinElmer) at a final concentration of 50 nM and 1 nM, respectively.
The assay reaction was initiated by the following: […] of the mixture of 750 nM H3K27me3-biotin labeled peptide and 1.2 to 6 μM alpha-ketoglutaric acid with 2 μL of 11-point serial diluted inhibitor in 3% DMSO were added to each well of plate, followed by the addition of 2 μl of 15 nM JMJD3 to initiate the reaction. The reaction mixture was incubated at RT for 30 min, and terminated by the addition of 6 μL of 5 mM EDTA in LANCE detection buffer containing 100 nM Phycolink Streptavidin-allophycocyanin and 2 nM Europium-anti-H3K27me2 antibody. Plates were read by EnVisionMultilabel Reader in TR-FRET mode (excitation at 320 nm, emission at 615 nm and 665 nm) after 1 hr incubation at RT. A ratio from the readout of 665/615 was calculated for each well and fitted to determine inhibition constant (IC50).

[5] = Table 4, cell gives A/B enantiomer values
[6] = Table 5, one class given per A and B pair

SMILES | IC50 [1] [nM] | IC50 [2, 5] [nM] | IC50 [2, 6] [nM] | IC50 [3, 5] [nM] | IC50 [3, 6] [nM] | IC50 [4, 5] [nM] | IC50 [4, 6] [nM]
Cc1ccc(N(C)c2ccc3c(c2)CCN[C@H]3CNc2cnccc2C(=O)O)cc1 [Example 1B, 3-[({(1R)-6-[methyl(4-methylphenyl)amino]-1,2,3,4-tetrahydroisoquinolyl}methyl)amino]pyridine-4-carboxylic acid] | 1000 to 10000 | ≤ 100 | ≤ 100 | 100 to 1000 | 100 to 1000 | – | –
CC(C)c1ccc(N(C)c2ccc3c(c2)CCN[C@H]3CNc2cnccc2C(=O)O)cc1 [Example 3B, 3-{[((1R)-6-{methyl[4-isopropylphenyl]amino}-1,2,3,4-tetrahydroisoquinolyl)methyl]amino}pyridine-4-carboxylic acid] | ≤ 100 | ≤ 100 | ≤ 100 | 100 to 1000 | 100 to 1000 | 100 to 1000 | 100 to 1000
Cc1cc(OCC2CC2)ccc1-c1ccc2c(c1)CCN[C@@H]2CNc1cnccc1C(=O)O [Example 4A, 3-[({(1S)-6-[4-(cyclopropylmethoxy)-2-methylphenyl]-1,2,3,4-tetrahydro-isoquinolyl}methyl)amino]pyridine-4-carboxylic acid] | 100 to 1000 | ≤ 100 | ≤ 100 | 1000 to 10000 | 100 to 1000 | 1000 to 10000 | > 10000
Cc1cc(OCC2CC2)ccc1-c1ccc2c(c1)CCN[C@H]2CNc1cnccc1C(=O)O [Example 4B, 3-[({(1R)-6-[4-(cyclopropylmethoxy)-2-methylphenyl]-1,2,3,4-tetrahydro-isoquinolyl}methyl)amino]pyridine-4-carboxylic acid] | 100 to 1000 | ≤ 100 | ≤ 100 | 1000 to 10000 | 100 to 1000 | > 10000 | > 10000
Cc1ccc(N(C)c2ccc3c(c2)CN[C@@H]3CNc2cnccc2C(=O)O)cc1 [Example 5A, 3-[({(1S)-5-[methyl(4-tolyl)amino]isoindolinyl}methyl)amino]pyridine-4-carboxylic acid] | 1000 to 10000 | ≤ 100 | ≤ 100 | – | – | – | –
Cc1ccc(N(C)c2ccc3c(c2)CN[C@H]3CNc2cnccc2C(=O)O)cc1 [Example 5B, 3-[({(1R)-5-[methyl(4-tolyl)amino]isoindolinyl}methyl)amino] pyridine-4-carboxylic acid] | 1000 to 10000 | ≤ 100 | ≤ 100 | – | – | – | –
CC(C)c1ccc(N(C)c2ccc3c(c2)CN[C@@H]3CNc2cnccc2C(=O)O)cc1 [Example 6A, 3-{[((1S)-5-{methyl[4-isopropylphenyl]amino}isoindolinyl)methyl]amino}pyridine-4-carboxylic acid] | 100 to 1000 | ≤ 100 | ≤ 100 | 1000 to 10000 | 1000 to 10000 | 1000 to 10000 | 1000 to 10000
CC(C)c1ccc(N(C)c2ccc3c(c2)CN[C@H]3CNc2cnccc2C(=O)O)cc1 [Example 6B, 3-{[((1R)-5-{methyl[4-isopropylphenyl]amino}isoindolinyl)methyl]amino}pyridine-4-carboxylic acid] | 100 to 1000 | ≤ 100 | ≤ 100 | 1000 to 10000 | 1000 to 10000 | > 10000 | 1000 to 10000
Cc1cc(OCC(F)(F)F)ccc1-c1ccc2c(c1)CN[C@@H]2CNc1cnccc1C(=O)O [Example 7A, 3-[({(1S)-5-[2-methyl-4-(2,2,2-trifluoro-ethoxy)phenyl]isoindolinyl}methyl)amino]pyridine-4-carboxylic acid] | 100 to 1000 | ≤ 100 | ≤ 100 | 1000 to 10000 | 1000 to 10000 | 100 to 1000 | 1000 to 10000
Cc1cc(OCC(F)(F)F)ccc1-c1ccc2c(c1)CN[C@H]2CNc1cnccc1C(=O)O [Example 7B, 3-[({(1R)-5-[2-methyl-4-(2,2,2-trifluoro-ethoxy)phenyl]isoindolinyl}methyl)amino] pyridine-4-carboxylic acid] | 100 to 1000 | ≤ 100 | ≤ 100 | 1000 to 10000 | 1000 to 10000 | 1000 to 10000 | 1000 to 10000
Cc1cccc(C)c1-c1ccc2c(c1)CCN(C)[C@H]2CNc1cnccc1C(=O)O [Example 17A, (R)-3-(((6-(2,6-dimethylphenyl)-2-methyl-1,2,3,4-tetrahydroisoquinolin-1-yl)methyl)amino)isonicotinic acid] | – | – | ≤ 100 | – | 1000 to 10000 | – | –

Next, values leading:

IC50 [1] [nM] | IC50 [2, 5] [nM] | IC50 [2, 6] [nM] | IC50 [3, 5] [nM] | IC50 [3, 6] [nM] | IC50 [4, 5] [nM] | IC50 [4, 6] [nM] | SMILES
– | – | ≤ 100 | – | 100 to 1000 | – | 1000 to 10000 | CCc1ccccc1-c1ccc2c(c1)CCN(C)[C@H]2CNc1cnccc1C(=O)O [Example 15A, (R)-3-(((6-(2-ethylphenyl)-2-methyl-1,2,3,4-tetrahydroisoquinolin-1-yl)methyl)amino)isonicotinic acid]
– | – | ≤ 100 | – | 100 to 1000 | – | 1000 to 10000 | CCc1ccccc1-c1ccc2c(c1)CCN(C)[C@@H]2CNc1cnccc1C(=O)O [Example 15B, (S)-3-(((6-(2-ethylphenyl)-2-methyl-1,2,3,4-tetrahydroisoquinolin-1-yl)methyl)amino)isonicotinic acid]
– | – | ≤ 100 | – | 1000 to 10000 | – | – | CC(C)c1ccccc1-c1ccc2c(c1)CCN(C)[C@H]2CNc1cnccc1C(=O)O [Example 16A, (R)-3-(((6-(2-isopropylphenyl)-2-methyl-1,2,3,4-tetrahydroisoquinolin-1-yl)methyl)amino)isonicotinic acid]
– | – | ≤ 100 | – | 1000 to 10000 | – | – | CC(C)c1ccccc1-c1ccc2c(c1)CCN(C)[C@@H]2CNc1cnccc1C(=O)O [Example 16B, (S)-3-(((6-(2-isopropylphenyl)-2-methyl-1,2,3,4-tetrahydroisoquinolin-1-yl)methyl)amino)isonicotinic acid]
– | – | ≤ 100 | – | 1000 to 10000 | – | – | Cc1cccc(C)c1-c1ccc2c(c1)CCN(C)[C@@H]2CNc1cnccc1C(=O)O [Example 17B, (S)-3-(((6-(2,6-dimethylphenyl)-2-methyl-1,2,3,4-tetrahydroisoquinolin-1-yl)methyl)amino)isonicotinic acid]
